Laboratory results reported in ChEMBL document CHEMBL3885881, “DrugMatrix”.

Organism: Rattus norvegicus
Assay: DrugMatrix - Regimen: Daily Repeat
Assay type: toxicity, organism-based, Sprague-Dawley
Parameters: regimen Daily Repeat, gender Male, age 6-8 weeks
Conditions: in vivo, po, route oral GAVAGE, vehicle 100 % WATER; for ABSOLUTE BASOPHIL / ABSOLUTE EOSINOPHIL / ABSOLUTE LYMPHOCYTE / ABSOLUTE MONOCYTE / ABSOLUTE SEGMENTED NEUTROPHIL / BASOPHIL / EOSINOPHIL / ERYTHROCYTE COUNT / HEMATOCRIT / HEMOGLOBIN / LEUKOCYTE COUNT / LYMPHOCYTE / MEAN CORPUSCULAR HEMOGLOBIN / MEAN CORPUSCULAR HEMOGLOBIN CONCENTRATION / MEAN CORPUSCULAR VOLUME / MONOCYTE / NEUTROPHIL / NUCLEATED RED BLOOD CELLS / PLATELET COUNT: tissue Blood; for ALANINE AMINOTRANSFERASE / ALBUMIN / ALKALINE PHOSPHATASE / ASPARTATE AMINOTRANSFERASE / BLOOD UREA NITROGEN / CARBON DIOXIDE / CHLORIDE / CHOLESTEROL / CREATINE PHOSPHOKINASE / CREATININE / GLUCOSE / LACTATE DEHYDROGENASE / LIPASE / PHOSPHORUS / POTASSIUM / SODIUM / TOTAL BILIRUBIN / TOTAL PROTEIN / URIC ACID: tissue Plasma
[1] = 110 mg/kg, 72 h, dose level Low, time 3 day
[2] = 110 mg/kg, 120 h, dose level Low, time 5 day
[3] = 400 mg/kg, 72 h, dose level High, time 3 day
[4] = 400 mg/kg, 120 h, dose level High, time 5 day

CCOC(=O)n1ccn(C)c1=S [CARBIMAZOLE]
ABSOLUTE BASOPHIL [1]: 0 CELLS/uL | ABSOLUTE EOSINOPHIL [1]: 15.67 CELLS/uL | ABSOLUTE LYMPHOCYTE [1]: 5022.67 CELLS/uL | ABSOLUTE MONOCYTE [1]: 37.33 CELLS/uL | ABSOLUTE SEGMENTED NEUTROPHIL [1]: 357.67 CELLS/uL | BASOPHIL [1]: 0% | EOSINOPHIL [1]: 0.33% | ERYTHROCYTE COUNT [1]: 5.37 x10E6/uL | HEMATOCRIT [1]: 33.5% | HEMOGLOBIN [1]: 13.37 G/DL | LEUKOCYTE COUNT [1]: 5.43 x10E3/uL | LYMPHOCYTE [1]: 92% | MEAN CORPUSCULAR HEMOGLOBIN [1]: 24.9 pg | MEAN CORPUSCULAR HEMOGLOBIN CONCENTRATION [1]: 39.9 G/DL | MEAN CORPUSCULAR VOLUME [1]: 62.43 fL | MONOCYTE [1]: 0.67% | NEUTROPHIL [1]: 7% | NUCLEATED RED BLOOD CELLS [1]: 0 /100WBC | PLATELET COUNT [1]: 1166.67 x10E3/uL | ALANINE AMINOTRANSFERASE [1]: 39.33 u/L | ALBUMIN [1]: 4.23 G/DL | ALKALINE PHOSPHATASE [1]: 314 u/L | ASPARTATE AMINOTRANSFERASE [1]: 65.33 u/L | BLOOD UREA NITROGEN [1]: 19.33 mg/dL | CARBON DIOXIDE [1]: 29.33 mmol/L | CHLORIDE [1]: 102 MEQ/L | CHOLESTEROL [1]: 81.67 mg/dL | CREATINE PHOSPHOKINASE [1]: 137 u/L | CREATININE [1]: 0.2 mg/dL | GLUCOSE [1]: 129.33 mg/dL | LACTATE DEHYDROGENASE [1]: 155 u/L | LIPASE [1]: 9.33 u/L | PHOSPHORUS [1]: 10.27 mg/dL | POTASSIUM [1]: 6.06 MEQ/L | SODIUM [1]: 147.63 MEQ/L | TOTAL BILIRUBIN [1]: 0.2 mg/dL | TOTAL PROTEIN [1]: 6 G/DL | URIC ACID [1]: 0.7 mg/dL | ABSOLUTE BASOPHIL [2]: 0 CELLS/uL | ABSOLUTE EOSINOPHIL [2]: 0 CELLS/uL | ABSOLUTE LYMPHOCYTE [2]: 14370.67 CELLS/uL | ABSOLUTE MONOCYTE [2]: 96 CELLS/uL | ABSOLUTE SEGMENTED NEUTROPHIL [2]: 766.67 CELLS/uL | BASOPHIL [2]: 0% | EOSINOPHIL [2]: 0% | ERYTHROCYTE COUNT [2]: 6.23 x10E6/uL | HEMATOCRIT [2]: 38.1% | HEMOGLOBIN [2]: 14.73 G/DL | LEUKOCYTE COUNT [2]: 15.23 x10E3/uL | LYMPHOCYTE [2]: 94% | MEAN CORPUSCULAR HEMOGLOBIN [2]: 23.67 pg | MEAN CORPUSCULAR HEMOGLOBIN CONCENTRATION [2]: 38.73 G/DL | MEAN CORPUSCULAR VOLUME [2]: 61.13 fL | MONOCYTE [2]: 0.67% | NEUTROPHIL [2]: 5.33% | NUCLEATED RED BLOOD CELLS [2]: 0 /100WBC | PLATELET COUNT [2]: 998 x10E3/uL | ALANINE AMINOTRANSFERASE [2]: 56.67 u/L | ALBUMIN [2]: 4.53 G/DL | ALKALINE PHOSPHATASE [2]: 416.67 u/L | ASPARTATE AMINOTRANSFERASE [2]: 76.67 u/L | BLOOD UREA NITROGEN [2]: 19 mg/dL | CARBON DIOXIDE [2]: 23.33 mmol/L | CHLORIDE [2]: 103 MEQ/L | CHOLESTEROL [2]: 83 mg/dL | CREATINE PHOSPHOKINASE [2]: 286 u/L | CREATININE [2]: 0.2 mg/dL | GLUCOSE [2]: 154 mg/dL | LACTATE DEHYDROGENASE [2]: 175.67 u/L | LIPASE [2]: 9.67 u/L | PHOSPHORUS [2]: 12.53 mg/dL | POTASSIUM [2]: 6.34 MEQ/L | SODIUM [2]: 148.13 MEQ/L | TOTAL BILIRUBIN [2]: 0.2 mg/dL | TOTAL PROTEIN [2]: 6.87 G/DL | URIC ACID [2]: 1.97 mg/dL | ABSOLUTE BASOPHIL [3]: 0 CELLS/uL | ABSOLUTE EOSINOPHIL [3]: 0 CELLS/uL | ABSOLUTE LYMPHOCYTE [3]: 9627.33 CELLS/uL | ABSOLUTE MONOCYTE [3]: 0 CELLS/uL | ABSOLUTE SEGMENTED NEUTROPHIL [3]: 872.67 CELLS/uL | BASOPHIL [3]: 0% | EOSINOPHIL [3]: 0% | ERYTHROCYTE COUNT [3]: 5.66 x10E6/uL | HEMATOCRIT [3]: 35.3% | HEMOGLOBIN [3]: 14.1 G/DL | LEUKOCYTE COUNT [3]: 10.5 x10E3/uL | LYMPHOCYTE [3]: 91.67% | MEAN CORPUSCULAR HEMOGLOBIN [3]: 24.9 pg | MEAN CORPUSCULAR HEMOGLOBIN CONCENTRATION [3]: 40.03 G/DL | MEAN CORPUSCULAR VOLUME [3]: 62.3 fL | MONOCYTE [3]: 0% | NEUTROPHIL [3]: 8.33% | NUCLEATED RED BLOOD CELLS [3]: 0 /100WBC | PLATELET COUNT [3]: 1182.33 x10E3/uL | ALANINE AMINOTRANSFERASE [3]: 38.33 u/L | ALBUMIN [3]: 4.2 G/DL | ALKALINE PHOSPHATASE [3]: 421 u/L | ASPARTATE AMINOTRANSFERASE [3]: 56 u/L | BLOOD UREA NITROGEN [3]: 12.67 mg/dL | CARBON DIOXIDE [3]: 25.67 mmol/L | CHLORIDE [3]: 101.67 MEQ/L | CHOLESTEROL [3]: 82 mg/dL | CREATINE PHOSPHOKINASE [3]: 338 u/L | CREATININE [3]: 0.17 mg/dL | GLUCOSE [3]: 149 mg/dL | LACTATE DEHYDROGENASE [3]: 171 u/L | LIPASE [3]: 9.67 u/L | PHOSPHORUS [3]: 11.57 mg/dL | POTASSIUM [3]: 6.88 MEQ/L | SODIUM [3]: 143.1 MEQ/L | TOTAL BILIRUBIN [3]: 0.2 mg/dL | TOTAL PROTEIN [3]: 5.97 G/DL | URIC ACID [3]: 1.73 mg/dL | ABSOLUTE BASOPHIL [4]: 0 CELLS/uL | ABSOLUTE EOSINOPHIL [4]: 0 CELLS/uL | ABSOLUTE LYMPHOCYTE [4]: 9558.67 CELLS/uL | ABSOLUTE MONOCYTE [4]: 45.33 CELLS/uL | ABSOLUTE SEGMENTED NEUTROPHIL [4]: 1996 CELLS/uL | BASOPHIL [4]: 0% | EOSINOPHIL [4]: 0% | ERYTHROCYTE COUNT [4]: 5.99 x10E6/uL | HEMATOCRIT [4]: 37.23% | HEMOGLOBIN [4]: 15.17 G/DL | LEUKOCYTE COUNT [4]: 11.6 x10E3/uL | LYMPHOCYTE [4]: 82.33% | MEAN CORPUSCULAR HEMOGLOBIN [4]: 25.33 pg | MEAN CORPUSCULAR HEMOGLOBIN CONCENTRATION [4]: 40.73 G/DL | MEAN CORPUSCULAR VOLUME [4]: 62.13 fL | MONOCYTE [4]: 0.33% | NEUTROPHIL [4]: 17.33% | NUCLEATED RED BLOOD CELLS [4]: 0 /100WBC | PLATELET COUNT [4]: 1416 x10E3/uL | ALANINE AMINOTRANSFERASE [4]: 37.33 u/L | ALBUMIN [4]: 3.73 G/DL | ALKALINE PHOSPHATASE [4]: 235 u/L | ASPARTATE AMINOTRANSFERASE [4]: 30.33 u/L | BLOOD UREA NITROGEN [4]: 19 mg/dL | CARBON DIOXIDE [4]: 20.67 mmol/L | CHLORIDE [4]: 105.33 MEQ/L | CHOLESTEROL [4]: 80 mg/dL | CREATINE PHOSPHOKINASE [4]: 198 u/L | CREATININE [4]: 0.16 mg/dL | GLUCOSE [4]: 124.67 mg/dL | LACTATE DEHYDROGENASE [4]: 434.67 u/L | LIPASE [4]: 9.33 u/L | PHOSPHORUS [4]: 11.57 mg/dL | POTASSIUM [4]: 6.35 MEQ/L | SODIUM [4]: 144.43 MEQ/L | TOTAL BILIRUBIN [4]: 0.17 mg/dL | TOTAL PROTEIN [4]: 5.8 G/DL | URIC ACID [4]: 1.57 mg/dL
